Measured values taken from US11230526B1, “Cylcoalkenyl derivatives useful as agonists of the GPR120 and/or GPR40 receptors” (Janssen Pharmaceutica NV, priority 2018, dated 2022).

What was measured:
Format in all cases: cell-based
[1] = molecular target: T1, Human GPR120 short form (Homo sapiens, UniProt Q5NUL3); experiment: Human GPR120 calcium flux assay, Procedure Calcium A (2500 cells/well)
T1 construct: expressed in transfected cells
T1 sequence (Q5NUL3 1-361): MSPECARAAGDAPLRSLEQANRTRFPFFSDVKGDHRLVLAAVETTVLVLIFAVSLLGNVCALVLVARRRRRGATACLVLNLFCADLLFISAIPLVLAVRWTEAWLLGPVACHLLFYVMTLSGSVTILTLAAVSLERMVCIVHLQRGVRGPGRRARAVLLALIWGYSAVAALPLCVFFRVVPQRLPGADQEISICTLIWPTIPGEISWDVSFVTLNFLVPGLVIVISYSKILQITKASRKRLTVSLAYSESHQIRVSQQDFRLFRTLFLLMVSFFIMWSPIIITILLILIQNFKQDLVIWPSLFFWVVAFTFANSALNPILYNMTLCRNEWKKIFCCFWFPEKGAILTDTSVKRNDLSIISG
Outline: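 HEK293 cells stably expressing human GPR120 short isoform (NM_001195755.1), 2500 cells/well, serum-starved 1 h at 37 °C and loaded with Fluo-4 NW plus probenecid. FLIPR fluorescence read for 300 s after compound addition; response = Fmax−Fmin. EC50 from four-parameter concentration–response fit.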

[2] = molecular target: T2, human GPR40 (Homo sapiens, UniProt O14842); experiment: GPR40 calcium flux assay, human GPR40; details: HEK293 cells stably expressing GPR40; table does not say human or rat
T2 construct: expressed in transfected cells
Outline: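 Cells preincubated 1 h at 37° C. in HBSS, 20 mM HEPES, 0.1% BSA, then Fluo 8 calcium dye 30 min at 37° C. and 15 min at room temperature.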

[3] = molecular target: T1, Human GPR120 short form; experiment: Human GPR120 calcium flux assay, Procedure Calcium B (4200 cells/well)
Outline: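 Agonist EC50 came from a four-parameter fit of RFU (Fmax−Fmin) read over 300 s on FLIPR. Cells were HEK293 stably transfected with human GPR120 (NM_001195755.1) at 4200 per well, serum-starved 1 h and loaded with Fluo-4 NW dye with probenecid before ligand addition.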

T2 sequence (O14842 whole entry): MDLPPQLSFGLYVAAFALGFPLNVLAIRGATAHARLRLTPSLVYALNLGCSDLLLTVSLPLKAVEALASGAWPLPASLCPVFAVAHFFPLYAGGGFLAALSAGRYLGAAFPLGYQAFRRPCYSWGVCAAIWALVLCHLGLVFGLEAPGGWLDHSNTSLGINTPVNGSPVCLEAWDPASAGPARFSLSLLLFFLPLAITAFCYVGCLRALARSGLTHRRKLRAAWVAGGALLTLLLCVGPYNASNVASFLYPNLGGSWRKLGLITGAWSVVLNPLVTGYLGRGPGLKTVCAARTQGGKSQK

Row | EC50 [1] | EC50 [2] | EC50 [3] | Compound
1 | 561 nM | > 10000 nM | 33 nM | O=C(O)CCc1cc(F)c(OCC2=C(c3ccc(Cl)cc3)CCCC2)c(F)c1 [Compound 510, 3-[4-[[2-(4-chlorophenyl)cyclohexen-1-yl]methoxy]-3,5-difluoro-phenyl]Propanoic Acid]
2 | 572 nM | > 10000 nM | 35 nM | O=C(O)CCc1ccc(OCC2=C(c3ccc(Cl)cc3)CCCC2)c(F)c1 [Compound 511, 3-[4-[[2-(4-chlorophenyl)cyclohexen-1-yl]methoxy]-3-fluoro-phenyl]Propanoic Acid]
3 | 808 nM | > 5000 nM | 140 nM | Cc1c(CCC(=O)O)ccc(OCC2=C(c3ccc(N(C)C)cc3)CCCC2)c1C [Compound 512, 3-[4-[[2-(4-dimethylaminophenyl)cyclohexen-1-yl]methoxy]-2,3-dimethyl-phenyl]Propanoic Acid]
4 | 331 nM | > 5000 nM | 42 nM | O=C(O)CCc1ccc(OCC2=C(c3ccc(Cl)cc3)CCCC2)c(F)c1F [Compound 513, 3-[4-[[2-(4-chlorophenyl)cyclohexen-1-yl]methoxy]-2,3-difluoro-phenyl]Propanoic Acid]
5 | 340 nM | > 5000 nM | 53 nM | O=C(O)CCc1ccc(OCC2=C(c3ccc(Cl)cc3)CCCC2)c2c1CCC2 [Compound 514, 3-[7-[[2-(4-chlorophenyl)cyclohexen-1-yl]methoxy]indan-4-yl]Propanoic Acid]
